The assay concerns H1N1 influenza virus (California 2011). Briefly: Prevention of mortality in immunodeficient mice infected with H1N1 influenza virus. It counts as in vivo. To be noted: cyclophosphamide-immunodeficient mice, oral 0.2 ml daily, 10 ED90/mouse intranasally.

The results in this text go back to patent US11446338B2, “Food, cosmetic and pharmaceutical formulation with an immunomodulatory and protective anti-viral effect” (priority 2018, dated 2022).

With `CC(N)C12CC3CC(CC(C3)C1)C2` (centres unmarked) [Rimantadine], the “Percentage of surviving animals after experiment, %” value was found to be 50% and the “The number of surviving animals after the experiment, n = 10” value is on record as 5.
